Test results: US20170198005A1, “2'-DICHLORO AND 2'-FLUORO-2'-CHLORO NUCLEOSIDE ANALOGUES FOR HCV INFECTION” (IDENIX PHARMACEUTICALS LLC, priority 2013, published 2017)
Where two headings read alike, the source gives them in different places.

What was measured:
[1] = Cytotoxicity evaluation, CellTiter-Blue Cell Viability Assay; type: cell-based; settings: human
Experimental: (§1) For cytotoxicity evaluation, Zluc cells were treated with compound as described herein, and cell viability was monitored using the CellTiter-Blue Cell Viability Assay (Promega) by adding 20 μL of the assay solution to each well. The plates were then incubated at 37° C./5% CO2 for at least 3 hours. Fluorescence was detected in plates using excitation and emission wavelengths of 531 and 595 nm, respectively, in a Victor^3 V 1420 multilabel counter (Perkin Elmer) and CC50 values were determined using Microsoft Excel and XLfit 5.2 software.

HCV genotype 1b replicon = test: HCV replicon assay (luciferase reporter); type: cell-based; settings: Zluc cells, 72 hours of incubation
Experimental: Huh-7-derived cell line (Zluc) that harbors an HCV genotype 1b replicon and a luciferase reporter gene was grown in Dulbecco's Modified Eagle Medium (DMEM) supplemented with 10% fetal bovine serum, 2 mM GlutaMAX, 1% MEM nonessential amino acids, 100 IU/mL penicillin, 100 μg/mL streptomycin, and 0.5 mg/mL Geneticin® (G418). For dose response testing the cells were seeded in 96-well plates at 7.5×10^3 cells per well in a volume of 50 μL, and incubated at 37° C./5% CO2. Drug solutions were made up freshly in Huh-7 media as 2× stocks. Ten additional 5-fold dilutions were prepared from these stocks in DMEM without G418. At least three hours after Zluc cells were seeded, drug treatment was initiated by adding 50 μL of drug dilutions to the plates in duplicate. Final concentrations of drug ranged from 100 μM to 0.0000512 μM. Cells were then incubated at 37° C./5% CO2. […] After 72 hours of incubation, the inhibition of HCV replication was measured by quantification of photons emitted after mono-oxygenation of 5′-fluoroluciferin to oxyfluoroluciferin by firefly luciferase. For this, media was removed from the plates via gentle tapping. Fifty microliters of ONE-glo luciferase assay reagent was added to each well. The plates were shaken gently for 3 min at room temperature and luminescence was measured on a Victor^3 V 1420 multilabel counter (Perkin Elmer) with a 1 second read time using a 700 nm cut-off filter. The EC50 values were calculated from dose response curves from the resulting best-fit equations determined by Microsoft Excel and XLfit 5.2 software.
Compounds presented in Table 1 below were assayed according to the replicon assay described herein.

[2] = test system: Zluc cells (Huh-7-derived cell line); test: Cytotoxicity evaluation, CellTiter-Blue Cell Viability Assay; type: cell-based; settings: read-out: HCV Replicon CC50
Experimental: as §1

[3] = biological target: T1, wild-type HCV genotype 1b NS5B protein (HCV polymerase) (Hepatitis C virus genotype 1b, UniProt Q9WMX2); test: HCV polymerase enzyme assay, wild-type; type: biochemical
T1 construct: HCV genotype 1b NS5B protein were used to generate recombinant HCV polymerases (with a deletion of the 21 carboxy terminal amino acids); made in house
From the text: (§2) Test compounds in the form of nucleoside triphosphates were examined for inhibitory activity against purified HCV polymerase in a standard assay. Bacterial expression constructs encoding the approximately 65 kDa HCV genotype 1b NS5B protein were used to generate recombinant HCV polymerases (with a deletion of the 21 carboxy terminal amino acids). Both the wild-type genotype 1b protein and protein containing the S282T mutation were expressed and purified for use in the enzymatic activity assay.
(§3) The enzymatic activity assay measured the inhibitory effect of increasing concentrations of test compound on the incorporation of α-[^33P]-labeled nucleotide into trichloroacetic acid-precipitable material. Recombinant polymerase and synthetic RNA template were combined in reaction buffer containing ribonucleoside triphosphates, α-[^33P]-labeled nucleotide and eight concentrations of test compound in three-fold dilutions. Reactions were incubated for two hours at 30° C.
(§4) Reactions were terminated by the addition of ice-cold trichloroacetic acid and sodium pyrophosphate to promote precipitation of newly-synthesized ribonucleic acid. Precipitable material from the reactions was collected by filtration onto 96-well filter plates, washed extensively with water, and quantified by liquid scintillation.
(§5) The inhibitory activity of test compounds was determined by fitting results to dose-response curves using XLfit software.

[4] = biological target: T2, HCV genotype 1b NS5B protein containing the S282T mutation (Hepatitis C virus genotype 1b, UniProt Q9WMX2, S2701T); test: HCV polymerase enzyme assay, S282T mutant; type: biochemical
T2 construct: HCV genotype 1b NS5B protein were used to generate recombinant HCV polymerases (with a deletion of the 21 carboxy terminal amino acids); made in house
From the text: as §2, §3, §4, §5

[5] = Pharmacokinetics of liver triphosphate following a single oral dose in CD-1 mice; type: in vivo; settings: CD-1 male mice, single oral dose 10 mg/kg in PEG 200, liver triphosphate at 4, 12 and 24 hours, AUC given at 1 μmol/kg
Experimental: A single oral dose of test compound at 10 mg/kg in PEG 200 (dose volume 5 mL/kg) was administered to nine CD-1 male mice. Five untreated animals were used for the collection of control plasma and liver. Terminal plasma and liver samples were collected from three animals per time point at 4, 12 and 24 hours post dose. Liver specimens were collected from all animals immediately after the incision. Freezing forceps stored in liquid nitrogen were used to freeze the liver before excision.
Liver samples were analyzed for the active species nucleoside triphosphate by LC-MS/MS. The triphosphate levels were assayed by homogenizing (on ice) a known weight of mouse liver with 4× volume of 0.95 M trichloroacetic acid (TCA). Internal standard solution was added to the homogenate followed by neutralization with 20% ammonium hydroxide solution and addition of 500 μL 1% formic acid. The tissue samples were extracted by weak anion exchange solid phase extraction (SPE). Post extraction, the eluates were evaporated under nitrogen, followed by reconstitution before injection onto the LC-MS/MS system. […] The analyte was detected and quantified by tandem mass spectrometry in positive ion mode on an API4000 equipped with a Turbo Ionspray® interface.

[6] = Zluc cells (Huh-7-derived HCV replicon cell line)
[7] = Zluc cells, read-out: HCV Replicon CC50

SMILES	CC50 [1, 6]	EC50 (HCV genotype 1b replicon; Hepatitis C virus, 72 h)	other results
Nc1ncnc2c1ncn2[C@@H]1O[C@H](CO)[C@@H](O)C1(Cl)Cl [Compound 1011]	> 50 µM	> 10 µM	–
CC(C)OC(=O)[C@@H](C)NP(=O)(OC[C@H]1C[C@@H](n2ccc(N)nc2=O)C(Cl)(Cl)[C@@H]1O)Oc1ccccc1 (single isomer, unassigned) [103a (Diast. 2)]	–	–	EC50 (HCV genotype 1b replicon): > 10 µM
CC(C)OC(=O)[C@H](C)NP(=O)(OCCSC(=O)C(C)(C)C)OC[C@H]1O[C@@H](n2cnc3c(N)ncnc32)C(Cl)(Cl)[C@@H]1O (single isomer, unassigned) [117b (Diast. 2)]	–	–	CC50 [2]: ≤ 50 µM; EC50 (HCV genotype 1b replicon): 0.25 to 1 µM
Nc1ccn([C@@H]2O[C@H](COP(=O)(O)OP(=O)(O)OP(=O)(O)O)[C@@H](O)C2(Cl)Cl)c(=O)n1 [Compound 2001]	–	–	IC50 [3]: < 250 nM; IC50 [4]: 250 to 1000 nM
CC(C)OC(=O)[C@H](C)N[P@](=O)(OCCSC(=O)C(C)(C)C)OC[C@H]1O[C@@H](n2ccc(N)nc2=O)[C@@](F)(Cl)[C@@H]1O (single isomer, unassigned) [102b (Diast. 2)]	–	–	CC50 [2]: > 50 µM; EC50 (HCV genotype 1b replicon): > 10 µM
Nc1nc2c(ncn2[C@@H]2O[C@H](COP(=O)(O)OP(=O)(O)OP(=O)(O)O)[C@@H](O)[C@]2(F)Cl)c(=O)[nH]1 [Compound 2003]	–	–	IC50 [3]: < 250 nM; IC50 [4]: < 250 nM
CC(C)OC(=O)[C@H](C)N[P@](=O)(OCCSC(=O)C(C)(C)C)OC[C@H]1O[C@@H](n2ccc(N)nc2=O)[C@@](F)(Cl)[C@@H]1O (single isomer, unassigned) [102b (Diast. 1)]	> 50 µM	> 10 µM	–
O=c1ccn([C@@H]2O[C@H](COP(=O)(O)OP(=O)(O)OP(=O)(O)O)[C@@H](O)[C@@]2(F)Cl)c(=O)[nH]1 [Compound 2005]	–	–	IC50 [3]: < 250 nM; IC50 [4]: 1000 to 10000 nM
O=c1ccn([C@@H]2O[C@H](COP(=O)(O)OP(=O)(O)OP(=O)(O)O)[C@@H](O)C2(Cl)Cl)c(=O)[nH]1 [Compound 2002]	–	–	IC50 [3]: < 250 nM; IC50 [4]: 1000 to 10000 nM
Nc1ccn([C@@H]2O[C@H](CO)[C@@H](O)C2(Cl)Cl)c(=O)n1 [Compound 1001]	> 50 µM	> 10 µM	–
CC(C)OP1(=O)OC[C@H]2O[C@@H](n3ccc(N)nc3=O)C(Cl)(Cl)[C@@H]2O1 (single isomer, unassigned) [104 (Diast. 2)]	–	–	CC50 [2]: > 50 µM; Ms Liver TP AUC ([5]; listed as 104 Diast. 2, 10 mg/kg): +++ (+++ ≦ 2000); EC50 (HCV genotype 1b replicon): > 10 µM
CC(C)OC(=O)[C@@H](C)NP(=O)(OC[C@H]1C[C@@H](n2ccc(N)nc2=O)C(Cl)(Cl)[C@@H]1O)Oc1ccccc1 (single isomer, unassigned) [103a (Diast. 1)]	–	> 10 µM	CC50 [1, 7]: > 50 µM
CC(C)OC(=O)[C@H](C)N[P@](=O)(OCCSC(=O)C(C)(C)C)OC[C@H]1O[C@@H](n2ccc(N)nc2=O)[C@@](F)(Cl)[C@@H]1O (mixture of isomers) [102b (Diast. Mix)]	> 50 µM	> 10 µM	–
CC(C)OC(=O)[C@H](C)NP(=O)(OCCSC(=O)C(C)(C)C)OC[C@H]1O[C@@H](n2cnc3c(N)ncnc32)C(Cl)(Cl)[C@@H]1O (single isomer, unassigned) [117b (Diast. 1)]	≤ 50 µM	0.25 to 1 µM	–
Nc1nc2c(ncn2[C@@H]2O[C@H](CO)[C@@H](O)[C@]2(F)Cl)c(=O)[nH]1 [Compound 1005]	> 50 µM	> 10 µM	–
Nc1ncnc2c1ncn2[C@@H]1O[C@H](COP(=O)(O)OP(=O)(O)OP(=O)(O)O)[C@@H](O)C1(Cl)Cl [Compound 2011]	–	–	IC50 [3]: 250 to 1000 nM
Nc1ccn([C@@H]2O[C@H](CO)[C@@H](O)[C@]2(F)Cl)c(=O)n1 [Compound 1004]	> 50 µM	1 to 10 µM	–
O=c1ccn([C@@H]2O[C@H](CO)[C@@H](O)C2(Cl)Cl)c(=O)[nH]1 [Compound 1002]	> 50 µM	> 10 µM	–
O=c1ccn([C@@H]2O[C@H](CO)[C@@H](O)[C@@]2(F)Cl)c(=O)[nH]1 [Compound 1007]	> 50 µM	> 10 µM	–
CC(C)OP1(=O)OC[C@H]2O[C@@H](n3ccc(N)nc3=O)C(Cl)(Cl)[C@@H]2O1 (single isomer, unassigned) [104 (Diast. 1)]	> 50 µM	–	Ms Liver TP AUC ([5]; listed as 104 Diast. 1, 10 mg/kg): ++++ (2000 < ++++); EC50 (HCV genotype 1b replicon): 1 to 10 µM
CC(C)OC(=O)[C@@H](C)NP(=O)(OC[C@H]1O[C@@H](n2cnc3c(=O)[nH]c(N)nc32)[C@@](F)(Cl)[C@@H]1O)Oc1ccccc1 (mixture of isomers) [147a (Diast. Mix)]	–	> 10 µM	CC50 [1, 7]: > 50 µM
CC(C)OC(=O)[C@H](C)N[P@](=O)(OCCSC(=O)C(C)(C)C)OC[C@H]1O[C@@H](n2ccc(N)nc2=O)C(Cl)(Cl)[C@@H]1O (single isomer, unassigned) [101b (Diast. 1)]	> 50 µM	1 to 10 µM	–
CC(C)OC(=O)[C@H](C)N[P@](=O)(OCCSC(=O)C(C)(C)C)OC[C@H]1O[C@@H](n2ccc(N)nc2=O)C(Cl)(Cl)[C@@H]1O (single isomer, unassigned) [101b (Diast. 2)]	–	–	CC50 [2]: > 50 µM; EC50 (HCV genotype 1b replicon): 1 to 10 µM
CC(C)OC(=O)[C@@H](C)NP(=O)(OC[C@H]1C[C@@H](n2ccc(N)nc2=O)C(Cl)(Cl)[C@@H]1O)Oc1ccccc1 (mixture of isomers) [103a (Diast. Mix)]	–	1 to 10 µM	CC50 [1, 7]: > 50 µM
O=c1ccn([C@@H]2O[C@H](COP(=O)(O)OP(=O)(O)OP(=O)(O)O)[C@@H](O)[C@]2(F)Cl)c(=O)[nH]1 [Compound 2004]	–	–	IC50 [3]: < 250 nM; IC50 [4]: 1000 to 10000 nM
O=c1ccn([C@@H]2O[C@H](CO)[C@@H](O)[C@]2(F)Cl)c(=O)[nH]1 [Compound 1006]	> 50 µM	> 10 µM	–
